Assay results: ChEMBL document CHEMBL1201862, “PubChem BioAssay data set” (2004)
Activity calls are given as the source filed them.

How the values were obtained:
Major prion protein = Major prion protein (Homo sapiens, UniProt P04156); assay type: functional, cell-based
cells [1] = assay: cells
Mu-type opioid receptor = Mu-type opioid receptor (Homo sapiens, UniProt P35372); assay: (§1) Counterscreen for agonists of heterodimerization of the mu 1 (OPRM1) and delta 1 (OPRD1) opioid receptors: Luminescence-based cell-based high throughput dose response assay to identify agonists of OPRM1 homodimerization.; assay type: functional
[2] = molecular target: 5-hydroxytryptamine receptor 5A (Homo sapiens, UniProt P47898); assay: Counterscreen for agonists of OPRM1-OPRD1 heterodimerization: luminescence-based cell-based high throughput dose response assay to identify agonists of 5-hydroxytryptamine (serotonin) 5A receptor (HTR5A). [Related pubchem assays (depositor defined):AID504326, AID504355, AID504692, AID504904, AID504905]; assay type: functional
[3] = molecular target: Delta-type opioid receptor (Homo sapiens, UniProt P41143); assay: as §1, with “of OPRD1” for “of OPRM1”, “homodimerization. [Related pubchem assays (depositor defined):AID504326, AID504355, AID504692, AID504904, AID504905]” for “homodimerization.”; assay type: functional
[4] = molecular target: T1, Short transient receptor potential channel 4 (Mus musculus, UniProt Q9QUQ5); assay: calcium entry via TRPC4 opening agents – cell-based, HEK293 TRPC4/mu-opioid, Fluo-4 calcium, dose response (AID 434937); assay type: functional
T1 sequence (Q9QUQ5 whole entry): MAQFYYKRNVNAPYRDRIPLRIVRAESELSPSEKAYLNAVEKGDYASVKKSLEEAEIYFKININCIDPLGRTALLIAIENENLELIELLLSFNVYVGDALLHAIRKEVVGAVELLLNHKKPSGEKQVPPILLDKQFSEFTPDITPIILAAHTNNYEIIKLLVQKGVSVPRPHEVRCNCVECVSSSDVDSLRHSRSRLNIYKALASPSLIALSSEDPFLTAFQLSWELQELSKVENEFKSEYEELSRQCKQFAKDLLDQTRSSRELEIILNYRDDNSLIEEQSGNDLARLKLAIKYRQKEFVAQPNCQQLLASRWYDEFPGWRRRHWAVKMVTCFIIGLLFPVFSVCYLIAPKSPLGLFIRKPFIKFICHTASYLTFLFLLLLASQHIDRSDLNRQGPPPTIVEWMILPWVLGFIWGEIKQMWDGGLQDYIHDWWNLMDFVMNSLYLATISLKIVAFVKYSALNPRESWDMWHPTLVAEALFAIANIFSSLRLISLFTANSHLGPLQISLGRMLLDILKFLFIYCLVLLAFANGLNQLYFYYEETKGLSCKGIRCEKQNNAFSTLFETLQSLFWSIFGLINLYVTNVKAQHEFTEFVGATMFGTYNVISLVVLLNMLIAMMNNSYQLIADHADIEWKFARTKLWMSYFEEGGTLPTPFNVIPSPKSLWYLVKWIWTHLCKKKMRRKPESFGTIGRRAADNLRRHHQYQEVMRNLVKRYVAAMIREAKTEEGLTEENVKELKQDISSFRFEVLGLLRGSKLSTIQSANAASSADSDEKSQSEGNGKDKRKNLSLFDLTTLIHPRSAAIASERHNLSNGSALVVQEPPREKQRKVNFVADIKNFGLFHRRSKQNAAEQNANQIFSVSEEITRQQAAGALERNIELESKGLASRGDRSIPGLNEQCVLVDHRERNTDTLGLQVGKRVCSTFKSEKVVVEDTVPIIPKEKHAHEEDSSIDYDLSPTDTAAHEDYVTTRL

[5] = viability loss in CEM21 cells – cell-based, CellTiter-Glo luminescence, cherry-picked, cytotoxicity control for viral fusion inhibitor project, dose response (AID 652042); assay type: functional;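 further: potency for signal decrease meaning cytotoxicity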
[6] = blockers of HIV-1 envelope-mediated cell-cell fusion – cherry-pick, dose response (AID 652057); assay type: functional, cell-based
[7] = off-target signal loss in HeLa-CEM21 co-culture – HeLa F-luc CTL cells, cherry-picked, counter-screen for HIV-1 Env fusion inhibitor project, dose response (AID 652040); assay type: functional, cell-based;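 further: potency for signal decrease marking cytotoxic or nonspecific inhibition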
[8] = blockers of HIV-1 ZM109 envelope-driven cell-cell fusion – HeLa effector, CEM target cells, luciferase, cherry-pick, dose response (AID 652058); assay type: functional, cell-based;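 further: luciferase signal from HIV-1 Env mediated cell-cell fusion of effector and target cells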
cells [9] = assay type: functional, cell-based; details: HEK-CNG
Galanin receptor type 3 = molecular target: T2, Galanin receptor type 3 (Homo sapiens, UniProt O60755); assay: Fluorescence-based cell-based primary high throughput dose response assay to identify antagonists of the Galanin Receptor 3 (GalR3).; assay type: functional
T2 sequence (O60755 whole entry): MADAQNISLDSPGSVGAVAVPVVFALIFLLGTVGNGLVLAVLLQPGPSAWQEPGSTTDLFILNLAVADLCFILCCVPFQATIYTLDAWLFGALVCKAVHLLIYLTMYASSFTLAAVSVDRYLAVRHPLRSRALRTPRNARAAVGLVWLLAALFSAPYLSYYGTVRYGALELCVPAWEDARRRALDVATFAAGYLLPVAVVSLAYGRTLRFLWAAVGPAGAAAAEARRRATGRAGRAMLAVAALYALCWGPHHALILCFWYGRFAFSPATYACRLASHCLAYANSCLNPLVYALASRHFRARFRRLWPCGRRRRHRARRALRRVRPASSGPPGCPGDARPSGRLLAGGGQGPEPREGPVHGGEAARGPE

Steroidogenic factor 1 = Steroidogenic factor 1 (Homo sapiens, UniProt Q13285); assay: Counterscreen for inverse agonists of the liver receptor homolog-1 (LRH-1; NR5A2): Luminescence-based cell-based high throughput dose response assay to identify inverse agonists of the Steroidogenic Factor 1 Nuclear Receptor (SF1; NR5A1).; assay type: functional
[10] = molecular target: Nuclear receptor subfamily 5 group A member 2 (Homo sapiens, UniProt O00482); assay type: functional, cell-based;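 further: HEK293T cells transfected with LRH-1 and a StAR promoter luciferase reporter; potency for inhibitors that lower LRH-1 driven reporter light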
[11] = nonselective StAR promoter luciferase inhibitors – cell-based, luminescence, luciferase reporter, counter-screen for LRH-1 inverse agonist project, dose response (AID 651969); assay type: functional
[12] = molecular target: T3, Type-1 angiotensin II receptor (Homo sapiens, UniProt P30556); assay: antagonism of angiotensin II type 1 receptor – cell-based, uHTS hits, selectivity assay for APJ receptor antagonist project, dose response (AID 463214); assay type: functional;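 further: antagonist potency against angiotensin II stimulated AT1 response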
T3 sequence (P30556 whole entry): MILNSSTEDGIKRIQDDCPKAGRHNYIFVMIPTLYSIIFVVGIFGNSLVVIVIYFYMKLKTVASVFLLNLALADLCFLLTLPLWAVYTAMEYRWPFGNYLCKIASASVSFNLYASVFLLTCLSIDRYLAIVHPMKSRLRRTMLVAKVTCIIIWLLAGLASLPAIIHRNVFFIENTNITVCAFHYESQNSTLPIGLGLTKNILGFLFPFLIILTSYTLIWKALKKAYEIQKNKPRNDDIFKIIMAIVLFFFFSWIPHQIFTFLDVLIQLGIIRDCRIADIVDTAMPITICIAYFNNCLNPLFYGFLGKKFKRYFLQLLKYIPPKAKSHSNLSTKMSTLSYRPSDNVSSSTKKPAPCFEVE

Beta-galactosidase = Beta-galactosidase (Escherichia coli, UniProt Q8VNN2); assay: PubChem AID 485352; assay type: functional
[13] = microbe, parasite or virus in culture; assay type: functional; details: Mycobacterium tuberculosis
[14] = Trypanosoma cruzi growth suppression in host cells – NIH3T3 host cells, beta-gal luminescence, confirmation (AID 2044); assay type: functional, cell-based;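 further: intracellular parasites grown in NIH/3T3 mouse fibroblasts as host cells; luminescent beta-galactosidase reporter signal from transgenic T. cruzi replicating inside host cells; inhibitors lower the luminescence signal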
[15] = NIH3T3 cell viability loss – ATP luminescence, mouse fibroblasts, counter-screen, dose response (AID 2010); assay type: functional, cell-based;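 further: cells exposed to compound for about 90 hours before reading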
[16] = molecular target: NAD-dependent protein deacylase sirtuin-5, mitochondrial (Homo sapiens, UniProt Q9NXA8); assay: sirtuin-5 deacylation blockers, concentration series – biochemical, fluorescence imaging, cherry-pick, set 5, dose response (AID 720591);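 further: desuccinylation of succinyl peptide AMC substrate read as fluorescence after trypsin release; potency of inhibitors that lower fluorescence and may act on trypsin instead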
[17] = A cytotoxicity screen of small molecule inhibitors of the PhoP region in Salmonella typhi identified in the primary screen. [Related pubchem assays: 1850, 1864, 1985 ]; assay type: functional
[18] = molecular target: T4, Endoribonuclease toxin MazF (Escherichia coli K-12, UniProt P0AE70); assay: activation of MazEF endoribonuclease cleavage – biochemical, fluorescence, single-stranded RNA substrate, uHTS hits, dose response (AID 588481); assay type: functional
T4 sequence (P0AE70 whole entry): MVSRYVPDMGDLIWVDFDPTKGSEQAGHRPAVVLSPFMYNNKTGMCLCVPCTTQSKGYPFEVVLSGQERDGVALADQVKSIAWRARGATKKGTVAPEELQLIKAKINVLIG

[19] = OVCAR8 cell viability loss – plate reader, dry powder samples, PAX8 project, dose response (AID 743197); assay type: functional, cell-based; details: OVCAR-8
Paired box protein Pax-8 = Paired box protein Pax-8 (Homo sapiens, UniProt Q06710); assay: PAX8 transcriptional activity inhibition in RMG-I – RMG-I cells, luciferase, cherry-pick, dose response (AID 687027); assay type: functional, cell-based;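 further: luciferase reporter driven by Pax8 target thyroperoxidase promoter measured by SteadyGlo luminescence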
[20] = OVCAR-3 cell viability loss – plate reader, dry powder samples, PAX8 inhibitor project, dose response (AID 743044); assay type: functional, cell-based

With `CCc1cc2cccc(C)c2nc1SCC(=O)NNC(=O)c1ccco1` the IC50 (Major prion protein) was 3.73 µM (active) and the IC50 (cells [1]) was > 138 µM (inactive).
With `Cc1ccc2c(C)c(C(=O)N(Cc3cccs3)C3CCS(=O)(=O)C3)oc2c1` (stereo not given) the EC50 (Mu-type opioid receptor) was > 92.5 µM (inactive), the EC50 [2] was > 92.5 µM (inactive) and the EC50 [3] was 63.6 µM (inactive). The EC50 [4] was 2.66 µM (active).
In the case of `Cc1ccc(S(=O)(=O)N(C)C)cc1NC(=O)C(C)N(C)CCOc1ccc(Cl)cc1` (stereo not given), the AC50 [5] is reported as 57 µM (active), the AC50 [6] is reported as 18.7 µM (active) and the AC50 [7] is reported as 39.3 µM (active). For the same molecule, the AC50 [8] was 1.85 µM (active).
With `CCOC(=O)Cc1csc(NC(=O)c2cc(=O)c3ccccc3o2)n1` the EC50 (cells [9]) was > 29.9 µM (inactive) and the IC50 (Galanin receptor type 3) was 3.82 µM (active).
In the case of `Cc1ccc(NC(=O)COC(=O)C(NS(=O)(=O)c2ccc(Cl)cc2)C(C)O)c(Br)c1` (stereo not given), the IC50 (Steroidogenic factor 1) is reported as 1.33 µM (active), the IC50 [10] is reported as 35.9 µM (inactive) and the IC50 [11] is reported as 35.9 µM (inactive).
For `CCCc1cc(=O)oc2c(C)c(OCC(=O)NC3CC(C)(C)NC(C)(C)C3)ccc12`, the IC50 (Steroidogenic factor 1) was 0.443 µM (active), the IC50 [10] was 35.9 µM (inactive) and the IC50 [11] was 35.9 µM (inactive).
For `Cc1cc(C)nc(NS(=O)(=O)c2ccc(NC(=O)CSc3nc(O)c(C#N)c(-c4ccccc4)n3)cc2)n1`, the IC50 (Major prion protein) was 6.28 µM (active) and the IC50 (cells [1]) was > 138 µM (inactive).
With `O=C(Cn1nnc2ccccc21)OCC(=O)c1ccc(Cl)c(Cl)c1` the IC50 [12] was 13.3 µM (active) and the EC50 (Beta-galactosidase) was > 40 µM (inactive).
In the case of `COCCN(C(=O)C1CC(=O)N(Cc2ccccc2)C1)c1nc(-c2ccc([N+](=O)[O-])cc2)cs1` (stereo not given), the EC50 (Mu-type opioid receptor) is reported as 22.9 µM (inactive), the EC50 [2] is reported as > 92.5 µM (inactive) and the EC50 [3] is reported as > 92.5 µM (inactive). For the same molecule, the CC50 [13] was > 40 µM (active).
In the case of `Cc1cc(C)c2sc(NC(=O)c3ccc([N+](=O)[O-])o3)nc2c1`, the EC50 [14] is reported as 642 nM (active), the IC50 (Steroidogenic factor 1) is reported as 1.89 µM (active) and the IC50 [10] is reported as 35.8 µM (inactive). The IC50 [11] was 35.8 µM (inactive) and the EC50 [15] was > 60 µM (not active).
For `CC1SC(C)C(=O)N(CC(=O)Nc2ccc3c(c2)OCO3)C1=O` (stereo not given), the IC50 (Steroidogenic factor 1) was 35.9 µM (inactive), the IC50 [10] was 35.9 µM (inactive) and the IC50 [11] was 35.9 µM (inactive).
With `COc1ccc(S(=O)(=O)NNc2nc(C)cc(C)n2)cc1[N+](=O)[O-]` the IC50 [12] was 36.7 µM (not active) and the EC50 (Beta-galactosidase) was > 40 µM (inactive).
With `CCOC(=O)CSc1ccc2ccccc2n1` the IC50 (Major prion protein) was 9.54 µM (active) and the IC50 (cells [1]) was > 138 µM (inactive).
In the case of `CC1=C(c2ccccc2)SC2=NCCN21`, the AC50 [16] is reported as > 30 µM (inactive) and the EC50 [17] is reported as > 50 µM (active).
In the case of `CCCN(c1ccc(OCC)cc1)S(=O)(=O)c1ccc2c(c1)NC(=O)CO2`, the IC50 (Major prion protein) is reported as 13.1 µM (inactive) and the IC50 (cells [1]) is reported as > 138 µM (inactive).
In the case of `Cc1cccc(OCCC(=O)NCC(c2ccccc2)N(C)C)c1` (stereo not given), the EC50 (Mu-type opioid receptor) is reported as > 92.5 µM (inactive), the EC50 [2] is reported as > 92.5 µM (inactive) and the EC50 [3] is reported as > 92.5 µM (inactive). For the same molecule, the EC50 [4] was 0.473 µM (active).
In the case of `CC1CC[C+]([N-]NS(=O)(=O)c2ccc([N+](=O)[O-])cc2)CC1`, the EC50 [18] is reported as > 99 µM (inactive).
For `Nc1nc(O)c2ncn([C@@H]3O[C@H](CNCc4ccc(OCCCN5CCOCC5)cc4)[C@@H](O)[C@H]3O)c2n1`, the AC50 [16] was > 30 µM (inactive).
For `Cc1cc(Br)c(NC(=O)COC(=O)CC2CC3CCC2C3)c(Br)c1` (stereo not given), the AC50 [16] was 21.8 µM (active).
With `COC(=O)[C@@]12C[C@@H](CC(=O)NCc3ccccc3)C(=O)N(Cc3ccccc3)C1=CCC(C)(C)C2` the AC50 [16] was 19.1 µM (active).
For `C[C@@H]1CCCCO[C@@H](CN(C)S(=O)(=O)c2ccc(F)cc2)[C@H](C)CN([C@H](C)CO)C(=O)c2cc(NS(=O)(=O)c3ccc(Cl)cc3)ccc2O1`, the AC50 [19] was > 70 µM (inactive), the AC50 (Paired box protein Pax-8) was 5.05 µM (active) and the AC50 [20] was 48.9 µM (active).
In the case of `Cc1ccc(S(=O)(=O)N/N=C/c2ccc3nccnc3c2)cc1`, the IC50 [12] is reported as > 40 µM (not active) and the EC50 (Beta-galactosidase) is reported as > 40 µM (inactive).
